Results from US6620828B2, “Thiazole compounds and pharmaceutical compositions for inhibiting protein kinases and methods for their use” (Agouron Pharmaceuticals, Inc., priority 1999, dated 2003).

System: human umbilical vein endothelial cells (HUVEC)
Test: HUVEC proliferation assay
Assay type: cell-based
Settings: Homo sapiens, HUVEC; for inhibition at 0.05 µM: Inhibition of HUVEC Proliferation, 50 nM, crude combinatorial urea library, read-out: Inhibition @ 50 nM
Method in brief: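 Readout was MTT dye reduction (A595) after 72 h of stimulation with VEGF at 6 ng/ml final. Compound, in 0.1% DMSO final, was added 1 h before VEGF to HUVEC starved 24 h in 1% FBS. % inhibition was scaled between VEGF-alone and unstimulated wells; IC50 was fitted from triplicate dose curves.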

`COc1cccc(C(=O)Nc2cc(-c3noc(-c4sc(NC(=O)NCCNc5ccccc5)nc4N)n3)c(F)cc2F)c1` showed an inhibition at 0.05 µM of 89%.
`COc1cccc(C(=O)Nc2cc(-c3noc(-c4sc(NC(=O)NCC(C)O)nc4N)n3)c(F)cc2F)c1` (centres unmarked) showed an inhibition at 0.05 µM of 78%.
With `COc1cccc(C(=O)Nc2cc(-c3noc(-c4sc(NC(=O)NCC5CCC=CO5)nc4N)n3)c(F)cc2F)c1` (centres unmarked) the inhibition at 0.05 µM was 93%.
Molecule `COc1cccc(C(=O)Nc2cc(-c3noc(-c4sc(NC(=O)NC5CC(C)(C)NC(C)(C)C5)nc4N)n3)c(F)cc2F)c1` has an inhibition at 0.05 µM of 99%.
`COc1cccc(C(=O)Nc2cc(-c3noc(-c4sc(NC(=O)NCCc5ccc(N)cc5)nc4N)n3)c(F)cc2F)c1` showed an inhibition at 0.05 µM of 88%.
`COc1cccc(C(=O)Nc2cc(-c3noc(-c4sc(NC(=O)NCCCN5CCOCC5)nc4N)n3)c(F)cc2F)c1` was tested, and the inhibition at 0.05 µM was 80%.
`COc1cccc(C(=O)Nc2cc(-c3noc(-c4sc(NC(=O)NCCC(C)C)nc4N)n3)c(F)cc2F)c1` was tested, and the inhibition at 0.05 µM was 96%.
Work on `COc1cccc(C(=O)Nc2cc(-c3noc(-c4sc(NC(=O)NCCC5CCCN5C)nc4N)n3)c(F)cc2F)c1` (centres unmarked) yielded an inhibition at 0.05 µM of 104%.
In the case of `COc1cccc(C(=O)Nc2cc(-c3noc(-c4sc(NC(=O)NCCN5CCCCC5)nc4N)n3)c(F)cc2F)c1`, the inhibition at 0.05 µM is reported as 78%.
`COc1cccc(C(=O)Nc2cc(-c3noc(-c4sc(NC(=O)NCc5ccccc5)nc4N)n3)c(F)cc2F)c1` was tested, and the inhibition at 0.05 µM was 61%.
`COc1cccc(C(=O)Nc2cc(-c3noc(-c4sc(NC(=O)NCCCN5CCCCC5C)nc4N)n3)c(F)cc2F)c1` (centres unmarked) gave an inhibition at 0.05 µM of 96%.
`COc1cccc(C(=O)Nc2cc(-c3noc(-c4sc(NC(=O)NC5CCN(Cc6ccccc6)CC5)nc4N)n3)c(F)cc2F)c1` was tested, and the inhibition at 0.05 µM was 82%.
With `COc1cccc(C(=O)Nc2cc(-c3noc(-c4sc(NC(=O)NCC(C)(C)CN(C)C)nc4N)n3)c(F)cc2F)c1` the inhibition at 0.05 µM was 77%.
`COc1cccc(C(=O)Nc2cc(-c3noc(-c4sc(NC(=O)NCCC(=O)O)nc4N)n3)c(F)cc2F)c1` gave an inhibition at 0.05 µM of 56%.
With `COCCNC(=O)Nc1nc(N)c(-c2nc(-c3cc(NC(=O)c4cccc(OC)c4)c(F)cc3F)no2)s1` the inhibition at 0.05 µM was 53%.
Molecule `COc1cccc(C(=O)Nc2cc(-c3noc(-c4sc(NC(=O)NCC(F)(F)F)nc4N)n3)c(F)cc2F)c1` has an inhibition at 0.05 µM of 89%.
`COc1cccc(C(=O)Nc2cc(-c3noc(-c4sc(NC(=O)NCCCn5ccnc5)nc4N)n3)c(F)cc2F)c1` gave an inhibition at 0.05 µM of 87%.
Work on `COc1cccc(C(=O)Nc2cc(-c3noc(-c4sc(NC(=O)NCCc5ccc(S(N)(=O)=O)cc5)nc4N)n3)c(F)cc2F)c1` yielded an inhibition at 0.05 µM of 83%.
In the case of `CCCCN(CC)CCNC(=O)Nc1nc(N)c(-c2nc(-c3cc(NC(=O)c4cccc(OC)c4)c(F)cc3F)no2)s1`, the inhibition at 0.05 µM is reported as 42%.
For `COc1cccc(C(=O)Nc2cc(-c3noc(-c4sc(NC(=O)NCc5ccc(N(C)C)cc5)nc4N)n3)c(F)cc2F)c1`, the inhibition at 0.05 µM was 48%.
For `COc1cccc(C(=O)Nc2cc(-c3noc(-c4sc(NC(=O)NCP(=O)(O)O)nc4N)n3)c(F)cc2F)c1`, the inhibition at 0.05 µM was 4%.
`COc1cccc(C(=O)Nc2cc(-c3noc(-c4sc(NC(=O)NC(CO)CO)nc4N)n3)c(F)cc2F)c1` showed an inhibition at 0.05 µM of 31%.
Molecule `COc1cccc(C(=O)Nc2cc(-c3noc(-c4sc(NC(=O)NCc5ccc(N)cc5)nc4N)n3)c(F)cc2F)c1` has an inhibition at 0.05 µM of 82%.
`COc1cccc(C(=O)Nc2cc(-c3noc(-c4sc(NC(=O)N[C@@H](CO)C(N)=O)nc4N)n3)c(F)cc2F)c1` gave an inhibition at 0.05 µM of 59%.
In the case of `COc1cccc(C(=O)Nc2cc(-c3noc(-c4sc(NC(=O)NCCNC(C)=O)nc4N)n3)c(F)cc2F)c1`, the inhibition at 0.05 µM is reported as 75%.
`COc1cccc(C(=O)Nc2cc(-c3noc(-c4sc(NC(=O)N[C@H](CO)Cc5c[nH]cn5)nc4N)n3)c(F)cc2F)c1` was tested, and the inhibition at 0.05 µM was 77%.
`CCC(CO)NC(=O)Nc1nc(N)c(-c2nc(-c3cc(NC(=O)c4cccc(OC)c4)c(F)cc3F)no2)s1` (centres unmarked) showed an inhibition at 0.05 µM of 81%.
With `COc1cccc(C(=O)Nc2cc(-c3noc(-c4sc(NC(=O)NCCCC(=O)O)nc4N)n3)c(F)cc2F)c1` the inhibition at 0.05 µM was 96%.
Molecule `COc1cccc(C(=O)Nc2cc(-c3noc(-c4sc(NC(=O)NCCN5CCNCC5)nc4N)n3)c(F)cc2F)c1` has an inhibition at 0.05 µM of 76%.
`COc1cccc(C(=O)Nc2cc(-c3noc(-c4sc(NC(=O)NCCc5ccccn5)nc4N)n3)c(F)cc2F)c1` was tested, and the inhibition at 0.05 µM was 78%.
Work on `COc1cccc(C(=O)Nc2cc(-c3noc(-c4sc(NC(=O)NCCN5CCCC5)nc4N)n3)c(F)cc2F)c1` yielded an inhibition at 0.05 µM of 79%.
`COCC(C)NC(=O)Nc1nc(N)c(-c2nc(-c3cc(NC(=O)c4cccc(OC)c4)c(F)cc3F)no2)s1` (centres unmarked) gave an inhibition at 0.05 µM of 80%.
With `COc1cccc(C(=O)Nc2cc(-c3noc(-c4sc(NC(=O)NCC(C)(O)CO)nc4N)n3)c(F)cc2F)c1` (centres unmarked) the inhibition at 0.05 µM was 45%.
For `COc1cccc(C(=O)Nc2cc(-c3noc(-c4sc(NC(=O)NC(C)CO)nc4N)n3)c(F)cc2F)c1` (centres unmarked), the inhibition at 0.05 µM was 77%.
Work on `COc1cccc(C(=O)Nc2cc(-c3noc(-c4sc(NC(=O)NCCN(C)C)nc4N)n3)c(F)cc2F)c1` yielded an inhibition at 0.05 µM of 69%.
Work on `COc1cccc(C(=O)Nc2cc(-c3noc(-c4sc(NC(=O)NCC(C)(C)N)nc4N)n3)c(F)cc2F)c1` yielded an inhibition at 0.05 µM of 14%.
`CCCCN(CCCC)CCCNC(=O)Nc1nc(N)c(-c2nc(-c3cc(NC(=O)c4cccc(OC)c4)c(F)cc3F)no2)s1` gave an inhibition at 0.05 µM of 80%.
`COc1cccc(C(=O)Nc2cc(-c3noc(-c4sc(NC(=O)NCCc5cncn5C)nc4N)n3)c(F)cc2F)c1` showed an inhibition at 0.05 µM of 10%.
`CCN1CCCC1CNC(=O)Nc1nc(N)c(-c2nc(-c3cc(NC(=O)c4cccc(OC)c4)c(F)cc3F)no2)s1` (centres unmarked) showed an inhibition at 0.05 µM of 12%.
`COc1cccc(C(=O)Nc2cc(-c3noc(-c4sc(NC(=O)NC(C)CN(C)C)nc4N)n3)c(F)cc2F)c1` (centres unmarked) showed an inhibition at 0.05 µM of 27%.
`COc1cccc(C(=O)Nc2cc(-c3noc(-c4sc(NC(=O)NCCCN5CCCC5)nc4N)n3)c(F)cc2F)c1` showed an inhibition at 0.05 µM of 75%.
Molecule `COc1cccc(C(=O)Nc2cc(-c3noc(-c4sc(NC(=O)NCCN(C(C)C)C(C)C)nc4N)n3)c(F)cc2F)c1` has an inhibition at 0.05 µM of -6%.
`COc1cccc(C(=O)Nc2cc(-c3noc(-c4sc(NC(=O)NCCCN5CCN(C)CC5)nc4N)n3)c(F)cc2F)c1` showed an inhibition at 0.05 µM of 72%.
Molecule `COc1cccc(C(=O)Nc2cc(-c3noc(-c4sc(NC(=O)NCCN5CCNC5=O)nc4N)n3)c(F)cc2F)c1` has an inhibition at 0.05 µM of -2%.
Work on `COc1cccc(C(=O)Nc2cc(-c3noc(-c4sc(NC(=O)NCCC(C)=O)nc4N)n3)c(F)cc2F)c1` yielded an inhibition at 0.05 µM of 6%.
`CCN(CC)CCCC(C)NC(=O)Nc1nc(N)c(-c2nc(-c3cc(NC(=O)c4cccc(OC)c4)c(F)cc3F)no2)s1` (centres unmarked) showed an inhibition at 0.05 µM of 7%.
Work on `COc1cccc(C(=O)Nc2cc(-c3noc(-c4sc(NC(=O)NCCCCN(C)C)nc4N)n3)c(F)cc2F)c1` yielded an inhibition at 0.05 µM of -3%.
Molecule `COc1cccc(C(=O)Nc2cc(-c3noc(-c4sc(NC(=O)NCCCCCCN(C)C)nc4N)n3)c(F)cc2F)c1` has an inhibition at 0.05 µM of -6%.
For `COc1cccc(C(=O)Nc2cc(-c3noc(-c4sc(NC(=O)NCC(C)N(C)C)nc4N)n3)c(F)cc2F)c1` (centres unmarked), the inhibition at 0.05 µM was -25%.
Molecule `COc1cccc(C(=O)Nc2cc(-c3noc(-c4sc(NC(=O)NCCCN5CCCCCC5)nc4N)n3)c(F)cc2F)c1` has an inhibition at 0.05 µM of 21%.
With `COc1cccc(C(=O)Nc2cc(-c3noc(-c4sc(NC(=O)NCCCN5CCCCC5)nc4N)n3)c(F)cc2F)c1` the inhibition at 0.05 µM was -20%.
Molecule `COc1cccc(C(=O)Nc2cc(-c3noc(-c4sc(NC(=O)NC5CCS(=O)(=O)C5)nc4N)n3)c(F)cc2F)c1` (centres unmarked) has an inhibition at 0.05 µM of -7%.
`COc1cccc(C(=O)Nc2cc(-c3noc(-c4sc(NC(=O)NCCC(=O)NCC(=O)O)nc4N)n3)c(F)cc2F)c1` was tested, and the inhibition at 0.05 µM was 49%.
Molecule `COc1cccc(C(=O)Nc2cc(-c3noc(-c4sc(NC(=O)NCC#N)nc4N)n3)c(F)cc2F)c1` has an inhibition at 0.05 µM of 12%.
`COc1cccc(C(=O)Nc2cc(-c3noc(-c4sc(NC(=O)NCC(=O)NO)nc4N)n3)c(F)cc2F)c1` gave an inhibition at 0.05 µM of -12%.
Work on `COc1cccc(C(=O)Nc2cc(-c3noc(-c4sc(NC(=O)NCC(=O)O)nc4N)n3)c(F)cc2F)c1` yielded an inhibition at 0.05 µM of 73%.
Work on `COc1cccc(C(=O)Nc2cc(-c3noc(-c4sc(NC(=O)NCCS(=O)(=O)O)nc4N)n3)c(F)cc2F)c1` yielded an inhibition at 0.05 µM of 88%.
`CCC(O)CNC(=O)Nc1nc(N)c(-c2nc(-c3cc(NC(=O)c4cccc(OC)c4)c(F)cc3F)no2)s1` (centres unmarked) showed an inhibition at 0.05 µM of 93%.
`COc1cccc(C(=O)Nc2cc(-c3noc(-c4sc(NC(=O)NCC(C)(C)CO)nc4N)n3)c(F)cc2F)c1` was tested, and the inhibition at 0.05 µM was 104%.
For `CCN1CC(NC(=O)Nc2nc(N)c(-c3nc(-c4cc(NC(=O)c5cccc(OC)c5)c(F)cc4F)no3)s2)CN1CC`, the inhibition at 0.05 µM was 92%.
In the case of `CCN(CCNC(=O)Nc1nc(N)c(-c2nc(-c3cc(NC(=O)c4cccc(OC)c4)c(F)cc3F)no2)s1)c1cccc(C)c1`, the inhibition at 0.05 µM is reported as 67%.
Work on `COc1cccc(C(=O)Nc2cc(-c3noc(-c4sc(NC(=O)NCC(=N)N)nc4N)n3)c(F)cc2F)c1` yielded an inhibition at 0.05 µM of 65%.
`COc1cccc(C(=O)Nc2cc(-c3noc(-c4sc(NC(=O)NCC(C)(C)C)nc4N)n3)c(F)cc2F)c1` showed an inhibition at 0.05 µM of 55%.
In the case of `COc1cccc(C(=O)Nc2cc(-c3noc(-c4sc(NC(=O)NC(=O)NCC5(O)CCCCC5)nc4N)n3)c(F)cc2F)c1`, the inhibition at 0.05 µM is reported as 99%.
In the case of `COc1cccc(C(=O)Nc2cc(-c3noc(-c4sc(NC(=O)NCCc5c[nH]cn5)nc4N)n3)c(F)cc2F)c1`, the inhibition at 0.05 µM is reported as 72%.
For `COc1cccc(C(=O)Nc2cc(-c3noc(-c4sc(NC(=O)NCS(=O)(=O)O)nc4N)n3)c(F)cc2F)c1`, the inhibition at 0.05 µM was 30%.
`COc1cccc(C(=O)Nc2cc(-c3noc(-c4sc(NC(=O)NCCCN(C)c5ccccc5)nc4N)n3)c(F)cc2F)c1` showed an inhibition at 0.05 µM of 84%.
`COc1cccc(C(=O)Nc2cc(-c3noc(-c4sc(NC(=O)NCc5ccc(S(N)(=O)=O)cc5)nc4N)n3)c(F)cc2F)c1` was tested, and the inhibition at 0.05 µM was 82%.
In the case of `COc1cccc(C(=O)Nc2cc(-c3noc(-c4sc(NC(=O)NCCCN(CCO)CCO)nc4N)n3)c(F)cc2F)c1`, the inhibition at 0.05 µM is reported as 84%.
For `COc1cccc(C(=O)Nc2cc(-c3noc(-c4sc(NC(=O)NCCc5ccncc5)nc4N)n3)c(F)cc2F)c1`, the inhibition at 0.05 µM was 99%.
`COc1cc(Nc2nc(N)c(-c3nc(-c4cccc(NC(=O)Cc5ccc(Cl)c(Cl)c5)c4)cs3)s2)cc(OC)c1OC` showed an inhibition at 0.15 µM (Table I screening results, 150 nM, crude combinatorial amide library) of -5%.
